{"source": "paper PMC11983102", "about": "“Conjugation to a transferrin receptor 1-binding Bicycle peptide enhances ASO and siRNA potency in skeletal and cardiac muscles” (Nucleic Acids Research, 2025)", "key": {"human TfR1": {"target": "T1, human TfR1 (Homo sapiens, UniProt P02786)", "T1 construct": "received from Bicycle Therapeutics as His6-tagged TfR1 (a.a. 89-760) (ACROBiosystems, CD1-H5243 and TfR-C524a); His6; purchased ACROBiosystems CD1-H5243", "T1 sequence (P02786 89-760)": "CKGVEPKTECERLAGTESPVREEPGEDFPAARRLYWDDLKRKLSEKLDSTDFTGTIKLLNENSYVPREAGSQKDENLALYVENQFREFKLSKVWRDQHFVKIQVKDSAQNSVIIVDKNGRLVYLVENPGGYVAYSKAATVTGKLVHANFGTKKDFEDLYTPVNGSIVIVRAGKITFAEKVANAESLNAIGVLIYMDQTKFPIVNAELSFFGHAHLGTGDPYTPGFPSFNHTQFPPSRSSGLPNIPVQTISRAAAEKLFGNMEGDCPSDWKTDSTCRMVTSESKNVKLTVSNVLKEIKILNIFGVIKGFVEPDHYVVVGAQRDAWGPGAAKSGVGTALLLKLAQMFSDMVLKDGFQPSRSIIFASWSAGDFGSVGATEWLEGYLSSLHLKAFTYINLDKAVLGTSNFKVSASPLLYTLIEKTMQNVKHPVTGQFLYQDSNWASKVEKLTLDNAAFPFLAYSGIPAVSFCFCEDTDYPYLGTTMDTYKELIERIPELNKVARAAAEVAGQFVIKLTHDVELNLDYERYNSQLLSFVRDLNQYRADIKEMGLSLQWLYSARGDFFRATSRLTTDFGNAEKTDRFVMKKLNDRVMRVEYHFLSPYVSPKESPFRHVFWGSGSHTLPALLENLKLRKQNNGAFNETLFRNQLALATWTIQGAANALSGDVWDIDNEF", "assay": "SPR binding of Bicycle peptides and conjugates to human TfR1", "details": "SPR (Biacore), human TfR1 captured on SA chip, 5-point single cycle kinetics, PBS-P+ 1% DMSO pH 7.4; geometric mean; unconjugated Bicycle peptides", "protocol": "Biacore experiments were performed to determine ka (M^-1s^-1), kd (s^-1), KD (nM) values of various peptides binding to TfR1. […] SPR binding analysis was performed on Biacore T200 and Biacore 8K+ (Cytiva). Human TfR1 and randomly biotinylated cynomolgus monkey TfR1 were captured on Series S Sensor Chip SA (BR100531, Cytiva) at levels of approximately 1000 RU. Using an appropriate top concentration, Bicycle peptides were screened in a 5-point titration curve in single cycle kinetics format at 30 ml/minute. The running buffer was PBS-P^+, 1% DMSO at pH 7.4. The data was solvent-corrected for DMSO bulk effects. In addition, all data was double corrected against the reference flow cell and matched buffer blanks. Data processing and kinetic fitting were performed using Biacore T200 Evaluation Software or Biacore Insight Evaluation. The data was fitted using the 1:1 binding model or steady-state affinity model where appropriate. The geometric mean (geomean) KD (nM) for binders was calculated by transforming unique KD values by log10, arithmetic-mean-averaging the transformed values, and subsequently anti-log-transforming the averaged value."}, "Mouse plasma stability": {"assay": "Mouse plasma stability", "type": "in vitro ADME", "procedure": "An alanine scan was performed to identify core residues involved in binding to the protein and solvent-facing residues which could be used to tune molecular properties, followed by substitutions with non-natural amino acids to identify suitable replacements at each position. In addition, peptides were synthesized to investigate the removal of the N- and C-terminal alanines, capping the N-terminal with an acetyl group, and to examine the effects of combinations with N- and C-terminal extensions. Affinity was measured using either SPR or fluorescence polarization (FP) assays, and plasma stability in mouse was determined for selected examples. Series of analogues with the azidolysine (K(N3)) or azidopropanoic acid (AzPro) were prepared on the C- and N-terminal of the Bicycle molecules, respectively. These were used to conjugate to an ASO or siRNA for further profiling."}}, "note": "Numbered stars: 1 amine (or outer) side, 2 acyl side, 3 side chain; on linkers, the order of the positions; unused ones are H or OH. Bridge positions count the residues as written; N and C are the ends. Peptide text beside a SMILES is read from it. TATB = O=C(C[*:1])N1CN(C(=O)C[*:2])CN(C(=O)C[*:3])C1", "data": [{"compound": "CC[C@H](C)[C@@H]1NC(=O)[C@@H]2CSCC(=O)N3CN(CN(C3)C(=O)CSC[C@@H](C(=O)N[C@@H](C)C(N)=O)NC(=O)[C@H](Cc3ccc(O)cc3)NC(=O)[C@H](CO)NC1=O)C(=O)CSC[C@H](NC(=O)[C@H](C)N)C(=O)N[C@@H](CO)C(=O)N1CCC[C@H]1C(=O)N[C@@H](CC(=O)O)C(=O)N[C@@H](C)C(=O)N[C@@H](Cc1c[nH]cn1)C(=O)N[C@@H](CC(C)C)C(=O)NCC(=O)N2", "note": "[BCY15468]", "values": [{"measurement": "Kd", "setting": "human TfR1", "value": 143, "unit": "nM"}]}, {"compound": "CC[C@H](C)[C@@H]1NC(=O)[C@@H]2CSCC(=O)N3CN(CN(C3)C(=O)CSC[C@H](NC(C)=O)C(=O)N[C@@H](CO)C(=O)N3CCC[C@H]3C(=O)N[C@@H](CC(=O)O)C(=O)N[C@@H](C)C(=O)N[C@@H](Cc3c[nH]cn3)C(=O)N[C@@H](CC(C)C)C(=O)NCC(=O)N2)C(=O)CSC[C@@H](C(N)=O)NC(=O)[C@H](Cc2ccc(O)cc2)NC(=O)[C@H](CO)NC1=O", "note": "[BCY15891] (Ac-CSPDAHLGCISYC-NH2; linker 1-9-13 via TATB)", "values": [{"measurement": "half-life", "setting": "Mouse plasma stability", "value": 22.7, "unit": "h"}]}, {"compound": "CC[C@H](C)[C@@H]1NC(=O)[C@@H]2CSCC(=O)N3CN(CN(C3)C(=O)CSC[C@@H](C(=O)N[C@@H](C)C(N)=O)NC(=O)[C@H](Cc3cccc4ccccc34)NC(=O)[C@H](CO)NC1=O)C(=O)CSC[C@H](NC(=O)[C@H](C)N)C(=O)N[C@@H](CO)C(=O)N1CCC[C@H]1C(=O)N[C@@H](CC(=O)O)C(=O)N[C@@H](C)C(=O)N[C@@H](Cc1c[nH]cn1)C(=O)N[C@@H](CC(C)C)C(=O)NCC(=O)N2", "note": "[compound 16029]", "values": [{"measurement": "Kd", "setting": "human TfR1", "value": 60, "unit": "nM"}]}, {"compound": "CC[C@H](C)[C@@H]1NC(=O)[C@@H]2CSCC(=O)N3CN(CN(C3)C(=O)CSC[C@@H](C(=O)N[C@@H](C)C(N)=O)NC(=O)[C@H](Cc3ccc4ccccc4c3)NC(=O)[C@H](CO)NC1=O)C(=O)CSC[C@H](NC(=O)[C@H](C)N)C(=O)N[C@@H](CO)C(=O)N1CCC[C@H]1C(=O)N[C@@H](CC(=O)O)C(=O)N[C@@H](C)C(=O)N[C@@H](Cc1c[nH]cn1)C(=O)N[C@@H](CC(C)C)C(=O)NCC(=O)N2", "note": "[compound 16031]", "values": [{"measurement": "Kd", "setting": "human TfR1", "value": 68, "unit": "nM"}]}, {"compound": "CC[C@H](C)[C@@H]1NC(=O)[C@@H]2CSCC(=O)N3CN(CN(C3)C(=O)CSC[C@@H](C(=O)N[C@@H](C)C(N)=O)NC(=O)[C@H](Cc3ccc(O)cc3)NC(=O)[C@H](CO)NC1=O)C(=O)CSC[C@H](NC(=O)[C@H](C)N)C(=O)N[C@@H](CO)C(=O)N1C[C@H](O)C[C@H]1C(=O)N[C@@H](CC(=O)O)C(=O)N[C@@H](C)C(=O)N[C@@H](Cc1c[nH]cn1)C(=O)N[C@@H](CC(C)C)C(=O)NCC(=O)N2", "note": "[compound 16047]", "values": [{"measurement": "Kd", "setting": "human TfR1", "value": 49, "unit": "nM"}]}]}
